According to paper PMC8286599 (Gut Pathogens, 2021):
Like-named read-outs stand apart in the source and are kept apart here.

Experiments:
[1] = system: MDR-EAEC strains; assay: MIC and MBC by broth microdilution with resazurin; type: cell-based, enteroaggregative Escherichia coli; conditions: infant diarrhoea isolate
Text: (§1) The characterised MDR field strains of EAEC (E1; E2; E3), S. Enteritidis (S1; S2; S3), and S. Typhimurium (ST1; ST2; ST3) maintained in the laboratory repository of Meat Safety Laboratory of ICAR-National Research Centre on Meat, Hyderabad re-validated using PCR assays were used to evaluate the in vitro antibacterial efficacy of phytochemicals. E. coli ATCC 25922 was used as the quality control strain.
(§2) The antimicrobial efficacy of identified phytochemicals against multi-drug resistant EAEC and NTS strains was determined by estimating the minimum inhibitory concentration (MIC) and minimum bactericidal concentrations (MBC).
(§3) Subsequent to the incubation period, resazurin dye (0.015 %) was added to all the wells to determine the dye reduction (pink) and thereby the bacterial inhibition.

[2] = system: MDR-S. Enteritidis strains; assay: MIC and MBC by broth microdilution with resazurin; type: cell-based, Salmonella Enteritidis; conditions: poultry droppings isolate
Text: as §1, §2, §3

[3] = system: MDR-S. Typhimurium strains; assay: MIC and MBC by broth microdilution with resazurin; type: cell-based, Salmonella Typhimurium; conditions: poultry droppings isolate
Text: as §1, §2, §3

[4] = Haemolytic assay; type: cell-based; conditions: read-out: Haemolysis; for hemolysis at 0.5 X MIC: 0.50X MIC
Protocol: The haemolytic assay of the individual phytochemical was performed by measuring the release of haemoglobin from sheep and human ‘O’ erythrocytes at 540 nm. The percentage of haemolysis was calculated as (Asample – APBS)/ (ATriton−X – APBS) ×100, in which Asample is the absorbance of phytochemical treatment, APBS is the absorbance of untreated control with PBS, and ATriton−X is the absorbance of lysed cells treated with Triton X-100 measured at 540 nm.

[5] = system: MDR-EAEC strains; assay: Stability assay, pH (MIC)
Text: (§4) To explore the utility of phytochemicals as therapeutic molecules and their stability, individual phytochemicals were exposed to cationic salts, and different pH levels followed by analysing their MIC and MBC values against test strains as described earlier.
(§5) Subsequent to exposure to varied conditions, the antimicrobial activity of the phytochemicals was estimated by determining their MIC and MBC values against all the selected MDR strains of EAEC, S. Enteritidis, and S. Typhimurium as described earlier.

[6] = system: MDR-S. Enteritidis strains; assay: Stability assay, pH (MIC)
Text: as §4, §5

[7] = system: MDR-S. Typhimurium strains; assay: Stability assay, pH (MIC)
Text: as §4, §5

[8] = system: MDR-EAEC strains; assay: Stability assay, cationic salts (MIC)
Text: as §4, §5

[9] = system: MDR-S. Enteritidis strains; assay: Stability assay, cationic salts (MIC)
Text: as §4, §5

[10] = system: MDR-S. Typhimurium strains; assay: Stability assay, cationic salts (MIC)
Text: as §4, §5

[11] = human 'O' erythrocytes, Human RBCs

O=C/C=C/c1ccccc1 [Cinnamaldehyde, cinnamaldehyde]
MBC ([1]; EAEC (E1)): 0.50 µl/ml
MIC ([1]; EAEC (E1)): 0.50 µl/ml
MBC ([1]; EAEC (E2)): 1.0 µl/ml
MIC ([1]; EAEC (E2)): 0.50 µl/ml
MBC ([1]; EAEC (E3)): 0.50 µl/ml
MIC ([1]; EAEC (E3)): 0.25 µl/ml
MBC ([2]; S. Enteritidis (S1)): 0.50 µl/ml
MIC ([2]; S. Enteritidis (S1)): 0.12 µl/ml
MBC ([2]; S. Enteritidis (S2)): 0.50 µl/ml
MIC ([2]; S. Enteritidis (S2)): 0.12 µl/ml
MBC ([2]; S. Enteritidis (S3)): 0.50 µl/ml
MIC ([2]; S. Enteritidis (S3)): 0.12 µl/ml
MBC ([3]; S. Typhimurium (ST1)): 0.50 µl/ml
MIC ([3]; S. Typhimurium (ST1)): 0.25 µl/ml
MBC ([3]; S. Typhimurium (ST2)): 0.50 µl/ml
MIC ([3]; S. Typhimurium (ST2)): 0.25 µl/ml
MBC ([3]; S. Typhimurium (ST3)): 1.0 µl/ml
MIC ([3]; S. Typhimurium (ST3)): 0.12 µl/ml
hemolysis at 0.25 X MIC [4, 11]: 0.554%
hemolysis at 0.5 X MIC [4, 11]: 0.696%
hemolysis at 1 X MIC [4, 11]: 2.03%
hemolysis at 2 X MIC [4, 11]: 5%
hemolysis at 4 X MIC [4, 11]: 12.8%
hemolysis at 8 X MIC [4, 11]: 19.1%
hemolysis at 0.25 X MIC ([4]; sheep erythrocytes, Sheep RBCs): 0.109%
hemolysis at 0.5 X MIC ([4]; sheep erythrocytes, Sheep RBCs): 0.274%
hemolysis at 1 X MIC ([4]; sheep erythrocytes, Sheep RBCs): 3.61%
hemolysis at 2 X MIC ([4]; sheep erythrocytes, Sheep RBCs): 11.7%
hemolysis at 4 X MIC ([4]; sheep erythrocytes, Sheep RBCs): 12.5%
hemolysis at 8 X MIC ([4]; sheep erythrocytes, Sheep RBCs): 22%
MIC at given pH ([5]; pH 4, strain E1): 0.5 µl/ml
MIC at given pH ([5]; pH 4, strain E2): 0.5 µl/ml
MIC at given pH ([5]; pH 4, strain E3): 0.5 µl/ml
MIC at given pH ([5]; pH 6, strain E1): 0.5 µl/ml
MIC at given pH ([5]; pH 6, strain E2): 0.5 µl/ml
MIC at given pH ([5]; pH 6, strain E3): 0.5 µl/ml
MIC at given pH ([5]; pH 8, strain E1): 0.5 µl/ml
MIC at given pH ([5]; pH 8, strain E2): 0.5 µl/ml
MIC at given pH ([5]; pH 8, strain E3): 0.5 µl/ml
MIC at given pH ([6]; pH 4, strain S1): 0.5 µl/ml
MIC at given pH ([6]; pH 4, strain S2): 0.5 µl/ml
MIC at given pH ([6]; pH 4, strain S3): 0.5 µl/ml
MIC at given pH ([6]; pH 6, strain S1): 0.5 µl/ml
MIC at given pH ([6]; pH 6, strain S2): 0.5 µl/ml
MIC at given pH ([6]; pH 6, strain S3): 0.5 µl/ml
MIC at given pH ([6]; pH 8, strain S1): 0.5 µl/ml
MIC at given pH ([6]; pH 8, strain S2): 0.5 µl/ml
MIC at given pH ([6]; pH 8, strain S3): 1.0 µl/ml
MIC at given pH ([7]; pH 4, strain ST1): 0.5 µl/ml
MIC at given pH ([7]; pH 4, strain ST2): 1.0 µl/ml
MIC at given pH ([7]; pH 4, strain ST3): 1.0 µl/ml
MIC at given pH ([7]; pH 6, strain ST1): 0.5 µl/ml
MIC at given pH ([7]; pH 6, strain ST2): 1.0 µl/ml
MIC at given pH ([7]; pH 6, strain ST3): 1.0 µl/ml
MIC at given pH ([7]; pH 8, strain ST1): 0.5 µl/ml
MIC at given pH ([7]; pH 8, strain ST2): 1.0 µl/ml
MIC at given pH ([7]; pH 8, strain ST3): 1.0 µl/ml
MIC with cationic salt ([8]; 2 mM MgCl2, strain E1): 0.5 µl/ml
MIC with cationic salt ([8]; 2 mM MgCl2, strain E2): 0.5 µl/ml
MIC with cationic salt ([8]; 2 mM MgCl2, strain E3): 0.5 µl/ml
Change of MIC values with cationic salts ([8]; 150 mM NaCl and 2 mM MgCl2, MDR-EAEC strains): remained almost similar
MIC with cationic salt ([8]; 150 mM NaCl, strain E1): 0.5 µl/ml
MIC with cationic salt ([8]; 150 mM NaCl, strain E2): 0.5 µl/ml
MIC with cationic salt ([8]; 150 mM NaCl, strain E3): 0.5 µl/ml
MIC with cationic salt ([9]; 2 mM MgCl2, strain S1): 0.5 µl/ml
MIC with cationic salt ([9]; 2 mM MgCl2, strain S2): 0.5 µl/ml
MIC with cationic salt ([9]; 2 mM MgCl2, strain S3): 0.5 µl/ml
MIC with cationic salt ([9]; 150 mM NaCl, strain S1): 0.5 µl/ml
MIC with cationic salt ([9]; 150 mM NaCl, strain S2): 0.5 µl/ml
MIC with cationic salt ([9]; 150 mM NaCl, strain S3): 0.5 µl/ml
MIC with cationic salt ([10]; 2 mM MgCl2, strain ST1): 0.5 µl/ml
MIC with cationic salt ([10]; 2 mM MgCl2, strain ST2): 0.5 µl/ml
MIC with cationic salt ([10]; 2 mM MgCl2, strain ST3): 1.0 µl/ml
MIC with cationic salt ([10]; 150 mM NaCl, strain ST1): 0.5 µl/ml
MIC with cationic salt ([10]; 150 mM NaCl, strain ST2): 0.5 µl/ml
MIC with cationic salt ([10]; 150 mM NaCl, strain ST3): 1.0 µl/ml
